Biological target: T1, human dopamine D4 receptor (Homo sapiens, UniProt P21917)
T1 construct: expressed in transfected cells
T1 sequence (P21917 1-419): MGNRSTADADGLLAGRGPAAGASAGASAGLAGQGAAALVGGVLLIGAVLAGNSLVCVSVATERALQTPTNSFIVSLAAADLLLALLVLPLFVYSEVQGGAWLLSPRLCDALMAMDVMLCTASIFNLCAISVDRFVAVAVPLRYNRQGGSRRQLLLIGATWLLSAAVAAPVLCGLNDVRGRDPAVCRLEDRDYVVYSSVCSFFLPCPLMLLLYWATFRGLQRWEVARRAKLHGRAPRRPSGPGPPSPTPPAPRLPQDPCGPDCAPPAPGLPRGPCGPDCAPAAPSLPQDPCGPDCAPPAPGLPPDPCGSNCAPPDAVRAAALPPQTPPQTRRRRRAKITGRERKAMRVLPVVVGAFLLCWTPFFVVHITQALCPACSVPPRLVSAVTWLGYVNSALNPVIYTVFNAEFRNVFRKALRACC
Experiment: Binding affinity for dopamine D4 receptor ([3H]-spiperone displacement, membrane fraction)
Conditions: cloned human dopamine D4 receptor; [3H]-spiperone 0.2nM; 37°C for 30 min; Ki from IC50 by the equation of Cheng and Prusoff
Experimental: Cells that express cloned human dopamine D4 receptor were harvested in an assay buffer (50mM Tris-HCl, pH7.4, containg 120 mM NaCl, 5 mM KCl, 1mM MgCl2, and 1 mM CaCl2) and homogenized in a potter type homogenizer. The membrane fraction was centrifuged at 39000 g for 20 min at 4°C. The pellet was suspended in 1 ml of the assay buffer per cells from dish having a diameter of 10 cm and was again homogenated. The aliquots (100µl) was added to the buffer containing [^3H]-spiperone of a final concentration of 0.2nM and a test compound to the final assay volume of 300µl, which was then incubated at 37°C for 30 min. The incubation was stopped by rapid filtration on a GF/B filter. Washing with 5 ml of ice-cold 50 mM Tris-HCl (pH 7.4) was then carried out. The radioactivity was measured with a packered liquid scintillation counter. The amount of nonspecific binding was determined in the presence of 1 µM spiperone, and the amount of the specific binding was then determined by subtracting the amount of the nonspecific binding from the total binding. For each compound, IC50 was determined by a regression analysis using a nonlinear least square method. The Ki value was then calculated by the equation of Cheng and Prusoff.

| Structure (SMILES) | Ki [nM] |
| --- | --- |
| O=c1ccc2ccccc2n1CCCN1CCN(CC2CCCCC2)CC1 [Example 1, 1-[3-(4-Cyclohexanemethyl-1-piperazinyl)-propyl]-2(1H)-quinolinone] | 7.6 |
| O=c1ccc2ccccc2n1CCCN1CCN(Cc2ccc(F)c(F)c2)CC1 [Example 3, 1-[3-[4-(3,4-Difluorobenzyl)-1-piperazinyl]-propyl]-2(1H)-quinolinone] | 18 |
| O=C1CCc2ccccc2N1CCN1CCN(CC2CCCCC2)CC1 [Example 10 (A), 1-[2-(4-Cyclohexanemethyl-1-piperazinyl)-ethyl]-3,4-dihydro-2(1H)-quinolinone] | 34 |
| O=c1ccc2ccccc2n1CCCN1CCC(Oc2ccc(Cl)cc2)CC1 [Example 20, 1-[3-[4-(4-Chlorophenoxy)-1-piperidinyl]-propyl]-2(1H)-quinolinone] | 2 |
| O=c1ccc2ccccc2n1CCCC1CCN(Cc2ccc(F)c(F)c2)CC1 [Example 24, 1-[3-[1-(3,4-Difluorobenzyl)-4-piperidinyl]-propyl]-2 (1H)-quinolinone] | 6 |
| O=C1COc2ccccc2N1CCCC1CCN(Cc2ccc(F)cc2)CC1 [Example 27, 1-[3-[1-(4-Fluorobenzyl)-4-piperidinyl]-propyl]-4H-benzo[1,4]oxazin-3-one] | 29 |
| O=C1COc2ccccc2N1CCCC1CCN(Cc2ccc(Cl)cc2)CC1 [Example 29, 1-[3-[1-(4-Chlorobenzyl)-4-piperidinyl]-propyl]-4H-benzo[1,4]oxazin-3-one] | 5.1 |
| O=C1CCc2ccccc2N1CCCC1CCN(Cc2ccc(F)c(F)c2)CC1 [Example 30, 1-[3-[1-(3,4-Difuorobenzyl)-4-piperidinyl]-propyl]-3,4-dihydro-2 (1H)-quinolinone] | 5.7 |
| O=C1CSc2ccccc2N1CCCC1CCN(Cc2ccc(F)cc2)CC1 [Example 32] | 7.6 |
| O=C1CSc2ccccc2N1CCCC1CCN(Cc2ccc(Cl)cc2)CC1 [Example 33] | 1 |
| O=C1CCc2ccccc2N1CCCC1CCN(Cc2ccc(F)cc2F)CC1 [Example 39, 1-[3-[1-(2,4-Difluorobenzyl)-4-piperidinyl]propyl]-3,4-dihydro-2(1H)-quinolinone] | 5.9 |
| O=C1CCc2ccccc2N1CCCC1CCN(Cc2ccc(Cl)cc2)CC1 [Example 41, 1-[3-[1-(4-Chlorobenzyl)-4-piperidinyl]-propyl]-3,4-dihydro-2 (1H)-quinolinone] | 1.1 |
| Cc1ccccc1CN1CCC(CCCN2C(=O)CCc3ccccc32)CC1 [Example 44, 1-[3-[1-(2-Methylbenzyl)-4-piperidinyl]-propyl]-3,4-dihydro-2(1H)-quinolinone] | 2.8 |
| Cc1cccc(CN2CCC(CCCN3C(=O)CCc4ccccc43)CC2)c1 [Example 54, 1-[3-[1-(3-Methylbenzyl)-4-piperidinyl]-propyl]-3,4-dihydro-2(1H)-quinolinone] | 7.5 |
| Cc1ccc(CN2CCC(CCCN3C(=O)CCc4ccccc43)CC2)cc1 [Example 55, 1-[3-[1-(4-Methylbenzyl)-4-piperidinyl]-propyl]-3,4-dihydro-2 (1H)-quinolinone] | 1 |
